From patent publication US9315459B2, “Crystalline forms of 4-[2-(4-methylphenylsulfanyl)-phenyl] piperidine” (priority 2006, dated 2016)
Structures can show the parent of a compound that is named as a salt.

Assay: Solubility of salts in water, pH of the saturated solution and identity of the precipitate
Type: physicochemical
Settings: for Precipitate: precipitate isolated after the solubility determination compared with the compound dissolved; for Solubility in words: summary of table 3; for Formation of hydrates: when precipitated from water; for Resulting pH: pH in the saturated solution of the salt

Precipitate | other results | Structure (SMILES)
=start (after | Solubility in words: exceptionally high solubility | Cc1ccc(Sc2ccccc2C2CCNCC2)cc1 (racemic)
=start | – | Cc1ccc(Sc2ccccc2C2CCNCC2)cc1 [Adipicacid, 1,6-hexanedioic acid 2:1]
=Start | – | Cc1ccc(Sc2ccccc2C2CCNCC2)cc1 [Citric acid 2:1]
Hydrate | Formation of hydrates: do | Cc1ccc(Sc2ccccc2C2CCNCC2)cc1 [D-tartaric acid, D-2,3-dihydroxy butanedioic acid 1:1]
=start | – | Cc1ccc(Sc2ccccc2C2CCNCC2)cc1 [Fumaric acid 1:1]
– | Solubility in words: exceptionally high solubility | Cc1ccc(Sc2ccccc2C2CCNCC2)cc1 [Glutamic acid 1:1]
=start | Solubility in words: exceptionally high solubility | Cc1ccc(Sc2ccccc2C2CCNCC2)cc1 [Glutaric acid, 1,5-pentanedioic acid 1:1]
– | Resulting pH (hydrobromide): 7.0; Precipitate (hydrobromide): =Start; Formation of hydrates (listed as HBr addition salt, hydrobromide): does not form hydrates | Cc1ccc(Sc2ccccc2C2CCNCC2)cc1 [HBr, 4-[2-(4-methylphenylsulfanyl)phenyl]piperidine hydrobromide]
=Start | – | Cc1ccc(Sc2ccccc2C2CCNCC2)cc1 [HCl, 4-[2-(4-methylphenyl-sulfanyl)phenyl]piperidine hydrochloride addition salt]
=Start | – | Cc1ccc(Sc2ccccc2C2CCNCC2)cc1 [Oxalic acid 1:1]
– | Resulting pH: 2.0 | Cc1ccc(Sc2ccccc2C2CCNCC2)cc1 [Phosphoric acid 1:1]
=Start | – | Cc1ccc(Sc2ccccc2C2CCNCC2)cc1 [Sebacoinic acid, 1,8-octanedioic acid 2:1]
